Some test systems named below: UACC-62 melanoma; KM12 colon; SN12C renal; DU-145 prostate; SF-539 CNS; SK-MEL-2 melanoma; ACHN renal; A549 NSCLC; NCI-H23 lung; SNB-75 CNS.
What all share (experiment): inhibition of tumour cell growth, NCI panel, 48 h

Our source for the GI50 and TGI values is PubChem BioAssay (NCI).

The structures appear in SMILES notation.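 Interpolation was linear, between the two tested concentrations surrounding the appropriate level; five concentrations were tested over 48 hours in 96-well plates. GI50 marks 50% less growth. TGI denotes the concentration required for complete inhibition of growth.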

`COc1ccc2c(c1)C(=O)c1c-2c(N2CCN(C(=O)CNCCNCCO)CC2)nc2ccccc12`: the GI50 in the assay with UACC-62 melanoma was 2.82 µM; with KM12 colon it was 2.48 µM; with SN12C renal it was 3.91 µM; with DU-145 prostate, 6.17 µM; with SF-539 CNS, 3.08 µM; in the assay on SK-MEL-2 melanoma, 2.2 µM. In addition, the figures for the GI50 in the assay on ACHN renal and in the assay with A549 NSCLC were 11 µM and 7.1 µM, respectively. Also, the TGI in the assay with UACC-62 melanoma turned out to be 8.64 µM; in the assay on KM12 colon, 5.79 µM; in the assay with SN12C renal, 13.3 µM; in the assay on DU-145 prostate, 18.4 µM; with SF-539 CNS it was 10.6 µM; with SK-MEL-2 melanoma it was 4 µM. In addition, the TGI with ACHN renal stood at 24.9 µM; in the assay on A549 NSCLC, 24.3 µM.
On to `Cc1ccc(/C=C/C(=O)c2sc(-c3nc(C)c(C(=O)/C=C/c4ccc(C)cc4)s3)nc2C)cc1`, for which the TGI with UACC-62 melanoma, in the assay on KM12 colon, in the assay with NCI-H23 lung, in the assay on SN12C renal, with SF-539 CNS and in the assay with SK-MEL-2 melanoma was greater than 100 µM each time. Moreover, the TGI in the assay on SNB-75 CNS, in the assay on ACHN renal and in the assay on A549 NSCLC was greater than 100 µM in each case.
Turning to `CCOC(=O)C(=[N+]=[N-])[Si](C)(C)C`, the TGI in the assay with UACC-62 melanoma, in the assay with KM12 colon, in the assay on NCI-H23 lung, in the assay on SN12C renal, with SF-539 CNS and in the assay on SK-MEL-2 melanoma was greater than 100 µM in each case. Also, the TGI with SNB-75 CNS, with ACHN renal and in the assay with A549 NSCLC was greater than 100 µM each time.
As to `COc1ccc2[nH]cc(C3(c4c[nH]c5ccc(OC)cc45)C(=O)Nc4ccc(F)cc43)c2c1`, the GI50 was 1.98 µM with UACC-62 melanoma; 2.58 µM with KM12 colon; 2.43 µM in the assay on NCI-H23 lung; 2.97 µM in the assay with SN12C renal; 3.71 µM in the assay with DU-145 prostate; 3.24 µM in the assay with SF-539 CNS. In addition, the GI50 in the assay on SK-MEL-2 melanoma is 2.34 µM; in the assay on SNB-75 CNS, 1.38 µM; in the assay with ACHN renal it was 2.93 µM. Moreover, the TGI in the assay with UACC-62 melanoma turned out to be 6.1 µM; in the assay on KM12 colon, 6.96 µM; in the assay on NCI-H23 lung, 8.06 µM; with SN12C renal it was 12.1 µM; with DU-145 prostate, 13.1 µM; in the assay on SF-539 CNS, 10.5 µM. Besides, the TGI in the assay with SK-MEL-2 melanoma is 5.02 µM; in the assay with SNB-75 CNS, 8.23 µM; in the assay on ACHN renal it was 10.1 µM.
With `CC(=O)Oc1c2c(c(O)c3ccccc13)C(n1cnc3c(ncn3C3OC(CO)C4OC(C)(C)OC43)c1=N)CCC2` (configuration not stated), the TGI in the assay on UACC-62 melanoma stood at 29 µM; in the assay on KM12 colon it was 29 µM; in the assay with NCI-H23 lung it was 36.7 µM; in the assay on SN12C renal, 37.9 µM; with SF-539 CNS, 32.2 µM; in the assay with SK-MEL-2 melanoma, 29.4 µM. For the same molecule, the values for the TGI in the assay on SNB-75 CNS, with ACHN renal and in the assay with A549 NSCLC were 32.3 µM, 30.9 µM and 35.4 µM, respectively.
Take `O=C1C=CC(=O)c2cc3cc(CBr)ccc3cc21`: the GI50 in the assay on UACC-62 melanoma is 5.61 µM; with KM12 colon, 17.5 µM; with NCI-H23 lung, 9.84 µM; in the assay on SN12C renal, 0.741 µM; in the assay on DU-145 prostate, 2.35 µM; in the assay on SK-MEL-2 melanoma, 33.3 µM. For the same molecule, the GI50 with SNB-75 CNS is 21.5 µM; in the assay on ACHN renal it was 1.82 µM; with A549 NSCLC it was 9.07 µM. Further, the TGI with UACC-62 melanoma is 15.6 µM; in the assay on KM12 colon it was 38.4 µM; in the assay with NCI-H23 lung it was 30.8 µM; in the assay with SN12C renal, 2.91 µM; in the assay with DU-145 prostate, 6.54 µM; in the assay on SK-MEL-2 melanoma, greater than 83.5 µM. Besides, the TGI stood at 98.1 µM with SNB-75 CNS and 3.71 µM in the assay on ACHN renal.
Consider `O=C(c1ccccc1Br)C(F)(F)F`, for which the TGI in the assay with UACC-62 melanoma, with KM12 colon, in the assay with NCI-H23 lung, in the assay with SN12C renal, in the assay on DU-145 prostate and in the assay with SF-539 CNS was greater than 100 µM throughout. The TGI in the assay on SNB-75 CNS, in the assay on ACHN renal and with A549 NSCLC was greater than 100 µM throughout.
For the molecule `CO/N=C(\COc1ccc2c(c1)oc(=O)c1cc(OC)ccc12)c1ccc(OC)cc1`, the GI50 with UACC-62 melanoma, with KM12 colon, in the assay with NCI-H23 lung, in the assay on SN12C renal, with DU-145 prostate and in the assay on SF-539 CNS was greater than 100 µM throughout. For the same molecule, the GI50 in the assay on SK-MEL-2 melanoma, with ACHN renal and in the assay with A549 NSCLC was greater than 100 µM in each case. For the same molecule, the TGI in the assay on UACC-62 melanoma, with KM12 colon, in the assay on NCI-H23 lung, with SN12C renal, in the assay with DU-145 prostate and in the assay with SF-539 CNS was greater than 100 µM in each case. In addition, the TGI in the assay with SK-MEL-2 melanoma, in the assay on ACHN renal and with A549 NSCLC was greater than 100 µM each time.
As for `O=C(/C=C/c1cccc2ccccc12)c1ccccc1Cl`, the TGI is 27.3 µM in the assay with UACC-62 melanoma; 21.3 µM in the assay with KM12 colon; 28.5 µM in the assay on NCI-H23 lung; greater than 100 µM in the assay on SN12C renal; 31.9 µM in the assay on SF-539 CNS; 34.7 µM with SK-MEL-2 melanoma. Further, the results for the TGI in the assay with SNB-75 CNS, in the assay on ACHN renal and in the assay with A549 NSCLC were 30.5 µM, 31.3 µM and 55.7 µM, respectively.
With `Cc1cc(N(CCC#N)CCC#N)ccc1N=Nc1ccc(C(=O)O)cc1`, the TGI with UACC-62 melanoma, in the assay on KM12 colon, with NCI-H23 lung, with SN12C renal, in the assay on SF-539 CNS and in the assay with SK-MEL-2 melanoma was greater than 100 µM throughout. The TGI in the assay on SNB-75 CNS, in the assay with ACHN renal and in the assay with A549 NSCLC was greater than 100 µM in each case.
On to `CN(C)CC1CCCC/C1=N/OC(=O)c1ccc(Cl)cc1` (configuration not stated), for which the TGI in the assay with UACC-62 melanoma, in the assay on KM12 colon, in the assay on NCI-H23 lung, in the assay with SN12C renal, in the assay with SF-539 CNS and in the assay with SK-MEL-2 melanoma was greater than 100 µM in each case. For the same molecule, the TGI in the assay with SNB-75 CNS, in the assay with ACHN renal and with A549 NSCLC was greater than 100 µM throughout.
